Assay results reported in PubChem BioAssay (NCI).
Where “and” joins values, the source holds several entries; their conditions need not be identical. Identical values can stand only once.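 How tested: cells in 96-well plates exposed to compound for 48 hours at five concentrations. At the GI50, growth is halved. TGI: concentration producing complete growth inhibition.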 *1 amine or outer side, *2 acyl side, *3 side chain or, on linkers, in order; H or OH if unused. Where a SMILES comes first, the peptide text is derived from it. Bridges are numbered along the chain shown (N, C = ends). [ ]: non-standard residue; d: D form. The star is where a group is joined. Phe(3-Me) = Cc1cccc(C[C@H](N)C(=O)O)c1; NH(4-Cl-2-F-phenyl) = Fc1cc(Cl)ccc1N*; Pro(4R-Me) = C[C@H]1CN[C@H](C(=O)O)C1; Propanoyl(3-NMe2) = CN(C)CCC(=O)*; Hyp = O=C(O)[C@@H]1C[C@@H](O)CN1; aThr = C[C@H](O)[C@H](N)C(=O)O; Pip = O=C(O)[C@@H]1CCCCN1; CO = O=C([*:1])[*:2]

Assays:
Test in all cases: growth of human tumour cells (NCI), 48 h
[1] = test system: SNB-19 CNS
[2] = test system: IGROV1 ovarian
[3] = test system: NCI-H522 lung
[4] = test system: SK-MEL-2 melanoma
[5] = test system: A549 NSCLC
[6] = test system: OVCAR-4 ovarian
[7] = test system: SNB-75 CNS
[8] = test system: HOP-62 NSCLC
[9] = test system: CCRF-CEM leukemia
[10] = test system: T-47D breast

Compound	TGI [1]	TGI [2]	TGI [3]	TGI [4]	TGI [5]	TGI [6]	TGI [7]	TGI [8]	TGI [9]	TGI [10]	GI50 [1]	GI50 [2]	GI50 [3]	GI50 [4]	GI50 [5]	GI50 [6]	GI50 [7]	GI50 [9]	GI50 [10]	GI50 [8]
O=C(O)/C=C\C(=O)Nc1ccc2c(c1)C(=O)c1cc(F)ccc1-2	> 100 µM	> 100 µM	> 100 µM	> 100 µM	> 100 µM	> 100 µM	> 100 µM	> 100 µM	> 100 µM	> 100 µM	–	–	–	–	–	–	–	–	–	–
Oc1cc2ccccc2cc1-c1n[nH]c(=S)n1-c1ccc(Cl)cc1	> 100 µM	7.67 µM	35.2 µM	39.3 µM	> 100 µM	> 100 µM	> 100 µM	–	> 100 µM	> 100 µM	25.4 µM	1.31 µM	5.65 µM	12.5 µM	25.3 µM	40.5 µM	28.7 µM	21.9 µM	31.6 µM	–
S=C(N/N=C(/c1ccccc1)c1ccccn1)Nc1cccc(Cl)c1	15.3 µM	2.03 µM and 6.68 µM	2.4 µM	2.87 µM	5.56 µM and 7.58 µM	3.67 µM and 15.9 µM	2.92 µM and 4.88 µM	4.18 µM and 17.7 µM	0.0383 µM	–	0.786 µM	0.28 µM	1.12 µM	0.0753 µM	1.82 µM	1.1 µM	0.608 µM	< 0.001 µM	0.56 µM	2.26 µM
O=S(=O)(NCCCNc1cc(-c2cn(-c3ccccc3)nc2-c2cccc(O)c2)ccn1)c1ccc(Cl)cc1	8.37 µM	13.2 µM	4.06 µM	3.51 µM	10.1 µM	5.92 µM	7.99 µM	3.25 µM	7.85 µM	5.21 µM	2.68 µM	2.96 µM	1.88 µM	1.91 µM	2.64 µM	1.67 µM	1.45 µM	2.43 µM	1.48 µM	1.52 µM
COc1ccc(CNc2nc(NCc3ccc(OC)cc3)c3n[nH]c(C(C)C)c3n2)cc1	23.1 µM	13.7 µM	4.51 µM	4.93 µM	> 100 µM	17.5 µM	5.32 µM	24.4 µM	15.4 µM	42.6 µM	4.46 µM	4.38 µM	2.26 µM	1.98 µM	7.25 µM	1.76 µM	0.406 µM	3.73 µM	3.38 µM	10 µM
CCN1CCN(C(=O)[C@]23CCC(C)(C)C[C@@H]2C2=CC[C@@H]4[C@@]5(C)C/C(=C/c6cccnc6)C(=O)C(C)(C)[C@@H]5CC[C@@]4(C)[C@]2(C)CC3)CC1	3.46 µM	4.16 µM	3.75 µM	3.96 µM	13.4 µM	7.85 µM	–	3.75 µM	9.02 µM	13.7 µM	1.68 µM	1.91 µM	1.61 µM	1.93 µM	2.62 µM	2.17 µM	–	2.1 µM	2.61 µM	1.88 µM
O=C1C(Cl)=C(Nc2cccc(O)c2)C(=O)N1c1cccc(Cl)c1Cl	82.9 µM	23.4 µM	27 µM	35.9 µM	45.9 µM	40.5 µM	–	62.9 µM	50.4 µM	86.3 µM	19.1 µM	5.96 µM	12.4 µM	15.2 µM	15 µM	15.6 µM	–	8.38 µM	16.8 µM	15.9 µM
CN1CCCCC1CCN1c2ccccc2Sc2ccc(S(C)=O)cc21 (stereo not drawn)	> 100 µM	> 100 µM	> 100 µM	> 100 µM	> 100 µM	> 100 µM	> 100 µM	> 100 µM	> 100 µM	> 100 µM	–	–	–	–	–	–	–	–	–	–
Cc1cccc(C[C@H](NC(=O)Nc2ccc(Cl)cc2F)C(=O)N[C@@H]2C(=O)N3C[C@H](OC(=O)CCN(C)C)C[C@H]3C(=O)N3CCCC[C@H]3C(=O)N[C@@H](C)C(=O)N3C[C@H](C)C[C@H]3C(=O)O[C@H]2C)c1 ({NH(4-Cl-2-F-phenyl)-CO}-[Phe(3-Me)][aThr][Hyp](Propanoyl(3-NMe2))[Pip]A[Pro(4R-Me)]; ester 2-C)	11.5 µM	2.46 µM	2.47 µM	2.67 µM	11.2 µM	2.06 µM	9.44 µM	7.24 µM	7.81 µM	4.53 µM	0.389 µM	0.94 µM	0.495 µM	0.667 µM	0.526 µM	0.334 µM	1.26 µM	0.47 µM	0.448 µM	0.536 µM
CCCCCCCCCC(CCCC(O)CC(=O)O)OC1OC(COC2OC(C)C(O)C(O)C2O)C(O)C(O)C1OC1OC(CO)C(O)C(O)C1OC1OC(C)C(O)C(O)C1O (stereo not drawn)	> 40 µM	> 40 µM	> 40 µM	–	> 40 µM	> 40 µM	> 40 µM	> 40 µM	> 40 µM	> 40 µM	> 40 µM	> 40 µM	> 40 µM	–	> 40 µM	> 40 µM	> 40 µM	> 40 µM	> 40 µM	> 40 µM
COc1ccc(CC2C3=C(CCCC3)CCN2C)cc1 (stereo not drawn)	> 100 µM	> 100 µM	–	> 100 µM	> 100 µM	> 100 µM	> 100 µM	> 100 µM	> 100 µM	> 100 µM	–	–	–	–	–	–	–	–	–	–
CC[C@]12CCCN3CC[C@]4(C(=C(C(=O)OC)C1)Nc1ccccc14)[C@@H]32	66.2 µM	45.6 µM	30.3 µM	39.2 µM	42.6 µM	54.8 µM	61.9 µM	32.7 µM	70 µM	80.5 µM	22.9 µM	16.8 µM	13 µM	16.8 µM	16.3 µM	15.4 µM	13.6 µM	21.4 µM	16.6 µM	15.6 µM
COC(=O)C1C2CCCN2OC1(C)CO (stereo not drawn)	> 100 µM	> 100 µM	> 100 µM	> 100 µM	> 100 µM	> 100 µM	> 100 µM	> 100 µM	> 100 µM	> 100 µM	–	–	–	–	–	–	–	–	–	–
Cc1nc2cc(N)c(Cl)cc2[nH]1	> 100 µM	> 100 µM	> 100 µM	> 100 µM	> 100 µM	–	> 100 µM	> 100 µM	> 100 µM	> 100 µM	–	–	–	–	–	–	–	–	–	–
O=C(/C=C/c1cccnc1)c1ccccc1O	62.5 µM	50 µM	48.7 µM	62.2 µM	> 100 µM	> 100 µM	59.1 µM	45.5 µM	> 100 µM	> 100 µM	20.3 µM	20.1 µM	16.6 µM	22.8 µM	37.1 µM	29.5 µM	16.5 µM	22.7 µM	21 µM	17.5 µM
CC([O-])C(=O)[O-].NCC1CCC1CN.[Pt+4] (stereo not drawn)	> 10 µM	> 10 µM	> 10 µM	> 10 µM	> 10 µM	> 10 µM	> 10 µM	> 10 µM	> 10 µM	> 10 µM	> 10 µM	> 10 µM	> 10 µM	> 10 µM	> 10 µM	> 10 µM	> 10 µM	4.39 µM	> 10 µM	> 10 µM
CC(=O)Nc1sc2c(c1-c1nc3ccccc3s1)CNC2	28.9 µM	11.9 µM	10.8 µM	9.71 µM	25 µM	24.8 µM	9.52 µM	15.8 µM	22.2 µM	22.3 µM	3.49 µM	2.07 µM	2.62 µM	2.67 µM	2.26 µM	3.08 µM	1.81 µM	3.74 µM	2.36 µM	2.38 µM
Nc1c(C(=O)Nc2ccccc2)sc2nc3c(cc12)CCCC3	> 100 µM	> 100 µM	> 25.8 µM	> 67.3 µM	39.4 µM	> 100 µM	40.8 µM	> 67.6 µM	> 46.5 µM	> 63.2 µM	18.1 µM	2.64 µM	0.872 µM	3.24 µM	0.546 µM	5.18 µM	0.551 µM	0.374 µM	0.918 µM	0.781 µM
CCN(CC)CC(O)C1CCC(c2ccccc2)CC1 (stereo not drawn)	> 100 µM	> 100 µM	43.1 µM	37.4 µM	> 100 µM	–	64.4 µM	> 100 µM	82.6 µM	> 100 µM	–	–	–	–	–	–	–	–	–	–
C/C(=N\NC(=O)c1ccncc1)c1ccc(O)cc1O	> 100 µM	63.4 µM	–	> 100 µM	> 100 µM	> 100 µM	88.2 µM	> 100 µM	> 100 µM	> 100 µM	5.29 µM	4.89 µM	–	> 100 µM	5.87 µM	2.68 µM	14.1 µM	2.08 µM	11.4 µM	3.93 µM
O=[N+]([O-])c1ccc(-c2cn(-c3ccc(Cl)cc3)cn2)cc1	> 100 µM	> 100 µM	14.4 µM	> 100 µM	> 100 µM	–	35.2 µM	34.6 µM	> 100 µM	> 100 µM	–	–	–	–	–	–	–	–	–	–
C=C1C(=O)OC2/C=C(\C)C3OC3/C=C(/C(=O)OC)C(OC(C)=O)C(OC(=O)C(C)(O)C(C)OC(C)=O)C12 (stereo not drawn)	29.1 µM	5.71 µM	0.871 µM	20.2 µM	35.5 µM	12.6 µM	10.6 µM	37.5 µM	3.04 µM	36.8 µM	–	–	–	–	–	–	–	–	–	–
CN1CCCN(C(c2ccccc2)c2ccc(Br)cc2)CC1 (stereo not drawn)	28 µM	22.1 µM	13.9 µM	11.3 µM	25.6 µM	20.5 µM	17.9 µM	19.3 µM	18.9 µM	19.2 µM	14.8 µM	8.83 µM	3.62 µM	3.66 µM	10.9 µM	7.63 µM	3.1 µM	4.14 µM	3.18 µM	6.52 µM
Cc1ccc(NC(=O)c2nc(S(C)=O)oc2-c2ccc(F)cc2)cc1Nc1nccc(-c2cccnc2)n1 (stereo not drawn)	3.91 µM	3.85 µM	3.04 µM	4.03 µM	17.3 µM	9 µM	5.43 µM	8.04 µM	6.83 µM	3.68 µM	2.15 µM	1.89 µM	1.05 µM	1.78 µM	5.15 µM	3.16 µM	2.31 µM	1.58 µM	1.73 µM	2.95 µM
C=C1N(C)c2ccc(Cl)cc2C1(C)C	> 100 µM	65.4 µM	74.8 µM	42.8 µM	> 100 µM	> 100 µM	77.3 µM	72.2 µM	69.2 µM	> 100 µM	8.75 µM	8.35 µM	5.91 µM	13.5 µM	17.4 µM	4.83 µM	4.25 µM	12.9 µM	3.54 µM	11.2 µM
O=C(CCl)Nc1ccc2c(c1)C(=O)c1ccc(NC(=O)CCl)cc1C2=O	2.98 µM	1.15 µM	0.57 µM	3.84 µM	> 100 µM	–	2.22 µM	–	0.896 µM	3.95 µM	0.547 µM	0.26 µM	0.194 µM	0.783 µM	2.79 µM	–	1.01 µM	0.127 µM	1.22 µM	–
COc1ccc(-c2coc3cc(OC)cc(O)c3c2=O)cc1	> 100 µM	> 100 µM	> 100 µM	–	> 100 µM	> 100 µM	> 100 µM	> 100 µM	> 100 µM	> 100 µM	–	–	–	–	–	–	–	–	–	–
CCCN1CCN(c2ccc3nc(-c4ccc5nc(-c6ccc(OCC)c(OCC)c6)[nH]c5c4)[nH]c3c2)CC1	1.98 µM	2.42 µM	–	2.01 µM	2.35 µM	1.84 µM	1.9 µM	3.2 µM	3.07 µM	5.66 µM	0.616 µM	0.475 µM	–	0.508 µM	0.808 µM	0.449 µM	0.425 µM	0.394 µM	0.428 µM	0.956 µM
